# Test system: 313798-341-R-J2-PDC spheroids, viability
# Test: Anticancer human tumor 313798-341-R-J2-PDC patient-derived cervical squamous cell carcinoma cell line growth inhibition [PI3K]
# Conditions: spheroids with HUVEC and MSC; for IC50: curve of first compound; for viability, T/C: stronger effect = lower value
# Method in brief: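 Complex 3D spheroids (cancer cells + endothelial HUVEC + mesenchymal stem cells); drug pairs of targeted agent x inavolisib/alpelisib/duvelisib/copanlisib; half-log series from ~Cmax, max 10 microM if Cmax unknown; endpoint viability.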
# [1] = second compound 0.0316 µM, first compound 0.0316 µM
# [2] = second compound 0.0316 µM, first compound 0.1 µM
# [3] = second compound 0.0316 µM, first compound 0.316 µM
# [4] = second compound 0.0316 µM, first compound 1 µM
# [5] = second compound 0.0316 µM, first compound 3.16 µM
# [6] = second compound 0.0316 µM, first compound 10 µM
# [7] = second compound 0.1 µM, first compound 0.0316 µM
# [8] = second compound 0.1 µM, first compound 0.1 µM
# [9] = second compound 0.1 µM, first compound 0.316 µM
# [10] = second compound 0.1 µM, first compound 1 µM
# [11] = second compound 0.1 µM, first compound 3.16 µM
# [12] = second compound 0.1 µM, first compound 10 µM
# [13] = second compound 0.316 µM, first compound 0.0316 µM
# [14] = second compound 0.316 µM, first compound 0.1 µM
# [15] = second compound 0.316 µM, first compound 0.316 µM
# [16] = second compound 0.316 µM, first compound 1 µM
# [17] = second compound 0.316 µM, first compound 3.16 µM
# [18] = second compound 0.316 µM, first compound 10 µM
# [19] = second compound 1 µM, first compound 0.0316 µM
# [20] = second compound 1 µM, first compound 0.1 µM
# [21] = second compound 1 µM, first compound 0.316 µM
# [22] = second compound 1 µM, first compound 1 µM
# [23] = second compound 1 µM, first compound 3.16 µM
# [24] = second compound 1 µM, first compound 10 µM
# [25] = second compound 3.16 µM, first compound 0.0316 µM
# [26] = second compound 3.16 µM, first compound 0.1 µM
# [27] = second compound 3.16 µM, first compound 0.316 µM
# [28] = second compound 3.16 µM, first compound 1 µM
# [29] = second compound 3.16 µM, first compound 3.16 µM
# [30] = second compound 3.16 µM, first compound 10 µM
# [31] = second compound 10 µM, first compound 0.0316 µM
# [32] = second compound 10 µM, first compound 0.1 µM
# [33] = second compound 10 µM, first compound 0.316 µM
# [34] = second compound 10 µM, first compound 1 µM
# [35] = second compound 10 µM, first compound 3.16 µM
# [36] = second compound 10 µM, first compound 10 µM
# 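Further: spheroids exposed to compounds for seven days.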
# 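Wherever viability, T/C is given: 100% = DMSO vehicle control viability.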
smiles,measurement,setting,value
C#Cc1c(F)ccc2cc(O)cc(-c3ncc4c(N5CC6CCC(C5)N6)nc(OCC56CCCN5CC(F)C6)nc4c3F)c12 (stereo unspecified) + Cc1nc(NC(=O)N2CCCC2C(N)=O)sc1-c1ccnc(C(C)(C)C(F)(F)F)c1,IC50,second compound 0.0316 µM,> 10 µM
same,IC50,second compound 0.1 µM,> 10 µM
same,IC50,second compound 0.316 µM,> 10 µM
same,IC50,second compound 1 µM,> 10 µM
same,IC50,second compound 3.16 µM,9.34 µM
same,IC50,second compound 10 µM,< 0.0316 µM
same,"viability, T/C",[1],92.7%
same,"viability, T/C",[2],91.5%
same,"viability, T/C",[3],90.5%
same,"viability, T/C",[4],99.2%
same,"viability, T/C",[5],103%
same,"viability, T/C",[6],102%
same,"viability, T/C",[7],105%
same,"viability, T/C",[8],106%
same,"viability, T/C",[9],112%
same,"viability, T/C",[10],97%
same,"viability, T/C",[11],105%
same,"viability, T/C",[12],96.5%
same,"viability, T/C",[13],99.9%
same,"viability, T/C",[14],98.4%
same,"viability, T/C",[15],121%
same,"viability, T/C",[16],108%
same,"viability, T/C",[17],99.1%
same,"viability, T/C",[18],100%
same,"viability, T/C",[19],97.6%
same,"viability, T/C",[20],80.3%
same,"viability, T/C",[21],89.3%
same,"viability, T/C",[22],89.7%
same,"viability, T/C",[23],90.9%
same,"viability, T/C",[24],79%
same,"viability, T/C",[25],59.9%
same,"viability, T/C",[26],62.5%
same,"viability, T/C",[27],59.1%
same,"viability, T/C",[28],60.1%
same,"viability, T/C",[29],54.6%
same,"viability, T/C",[30],44.8%
same,"viability, T/C",[31],41.7%
same,"viability, T/C",[32],39.8%
same,"viability, T/C",[33],33.2%
same,"viability, T/C",[34],33.9%
same,"viability, T/C",[35],31.3%
same,"viability, T/C",[36],27.2%
CC(Cn1ccc(-c2ccc(C#N)c(Cl)c2)n1)NC(=O)c1cc(C(C)O)[nH]n1 (stereo unspecified) + Cc1nc(NC(=O)N2CCCC2C(N)=O)sc1-c1ccnc(C(C)(C)C(F)(F)F)c1,IC50,second compound 0.0316 µM,> 10 µM
same,IC50,second compound 0.1 µM,> 10 µM
same,IC50,second compound 0.316 µM,> 10 µM
same,IC50,second compound 1 µM,> 10 µM
same,IC50,second compound 3.16 µM,> 10 µM
same,IC50,second compound 10 µM,< 0.0316 µM
same,"viability, T/C",[1],103%
same,"viability, T/C",[2],93.9%
same,"viability, T/C",[3],97.6%
same,"viability, T/C",[4],99.9%
same,"viability, T/C",[5],111%
same,"viability, T/C",[6],92.1%
same,"viability, T/C",[7],114%
same,"viability, T/C",[8],109%
same,"viability, T/C",[9],103%
same,"viability, T/C",[10],113%
same,"viability, T/C",[11],114%
same,"viability, T/C",[12],103%
same,"viability, T/C",[13],114%
same,"viability, T/C",[14],104%
same,"viability, T/C",[15],118%
same,"viability, T/C",[16],114%
same,"viability, T/C",[17],108%
same,"viability, T/C",[18],98.4%
same,"viability, T/C",[19],96.7%
same,"viability, T/C",[20],93.6%
same,"viability, T/C",[21],94.8%
same,"viability, T/C",[22],85.2%
same,"viability, T/C",[23],97.6%
same,"viability, T/C",[24],84.1%
same,"viability, T/C",[25],67.5%
same,"viability, T/C",[26],57.3%
same,"viability, T/C",[27],66.1%
same,"viability, T/C",[28],61.7%
same,"viability, T/C",[29],59.1%
same,"viability, T/C",[30],52.5%
same,"viability, T/C",[31],37.2%
same,"viability, T/C",[32],33.2%
same,"viability, T/C",[33],39.3%
same,"viability, T/C",[34],36.3%
same,"viability, T/C",[35],37.4%
same,"viability, T/C",[36],30.9%
CC1(C)CCC(Nc2ncc(C(F)(F)F)c(-c3c[nH]c4c(P(C)(C)=O)c(C#N)ccc34)n2)CN1 (stereo unspecified) + Cc1nc(NC(=O)N2CCCC2C(N)=O)sc1-c1ccnc(C(C)(C)C(F)(F)F)c1,IC50,second compound 0.0316 µM,> 10 µM
same,IC50,second compound 0.1 µM,> 10 µM
same,IC50,second compound 0.316 µM,< 0.0316 µM
same,IC50,second compound 1 µM,< 0.0316 µM
same,IC50,second compound 3.16 µM,< 0.0316 µM
same,IC50,second compound 10 µM,< 0.0316 µM
same,"viability, T/C",[1],64.5%
same,"viability, T/C",[2],49.2%
same,"viability, T/C",[3],52.4%
same,"viability, T/C",[4],54.4%
same,"viability, T/C",[5],58.8%
same,"viability, T/C",[6],71.9%
same,"viability, T/C",[7],54.9%
same,"viability, T/C",[8],50.8%
same,"viability, T/C",[9],50.3%
same,"viability, T/C",[10],53.1%
same,"viability, T/C",[11],54.1%
same,"viability, T/C",[12],66.6%
same,"viability, T/C",[13],45.7%
same,"viability, T/C",[14],39.6%
same,"viability, T/C",[15],35.5%
same,"viability, T/C",[16],38.7%
same,"viability, T/C",[17],43.8%
same,"viability, T/C",[18],52.3%
same,"viability, T/C",[19],34.7%
same,"viability, T/C",[20],32.2%
same,"viability, T/C",[21],35.5%
same,"viability, T/C",[22],34.2%
same,"viability, T/C",[23],36%
same,"viability, T/C",[24],33.7%
same,"viability, T/C",[25],27.9%
same,"viability, T/C",[26],25%
same,"viability, T/C",[27],23.7%
same,"viability, T/C",[28],23.3%
same,"viability, T/C",[29],26.2%
same,"viability, T/C",[30],10.8%
same,"viability, T/C",[31],16.9%
same,"viability, T/C",[32],18.7%
same,"viability, T/C",[33],16.6%
same,"viability, T/C",[34],17.8%
same,"viability, T/C",[35],17.2%
same,"viability, T/C",[36],1.7%

# Source: PubChem BioAssay AID1963982 (Molecular Pharmacology Branch, DTP, NCI, 2024)
